Experiments:
Assay in all cases: cells
Parameters in all cases: species or system NCI human tumour cell line panel; NCI one-dose anti-proliferative screen, human tumour cell line panel, growth inhibition percent (GI%)
HCT-116 = conditions: Homo sapiens, HCT-116; growth inhibition (GI%), single dose
Protocol: (§1) Ten of the newly synthesised 1,2,3-triazolo benzenesulfonamide derivatives were selected by NCI (Bethesda, MD) for evaluating their anti-proliferative activity. The selected compounds were subjected to a primary in vitro one-dose ([…]) anti-proliferative assay against 57 human tumour cell lines following the previously reported method[30] and their obtained growth inhibition percent (GI%) are presented in Table 2. A subset of ten triazolo-benzenesulfonamides (3, 5, 6, 7, 9, 11, 16–18, and 20) were selected and subjected to an in vitro anti-proliferative screening against a panel of 57 cancer cell lines at NCI at an initial high dose ([…]). The human cell lines used were derived from nine cancer types: leukaemia, lung, colon, CNS, melanoma, ovarian, renal, prostate and breast cancers.

ACHN = conditions: Homo sapiens, ACHN; growth inhibition (GI%), single dose
Protocol: as §1

MDA-MB-435 = conditions: Homo sapiens, MDA-MB-435; growth inhibition (GI%), single dose
Protocol: as §1

SK-OV-3 = conditions: Homo sapiens, SK-OV-3; growth inhibition (GI%), single dose
Protocol: as §1

A549/ATCC = conditions: Homo sapiens, A549; growth inhibition (GI%), single dose
Protocol: as §1

SNB-75 = conditions: Homo sapiens, SNB-75; growth inhibition (GI%), single dose
Protocol: as §1

SW-620 = conditions: Homo sapiens, SW-620; growth inhibition (GI%), single dose
Protocol: as §1

MOLT-4 = conditions: Homo sapiens, MOLT-4; growth inhibition (GI%), single dose
Protocol: as §1

EKVX = conditions: Homo sapiens, EKVX; growth inhibition (GI%), single dose
Protocol: as §1

HT29 = conditions: Homo sapiens, HT-29; growth inhibition (GI%), single dose
Protocol: as §1

HL-60(TB) = conditions: Homo sapiens, HL-60; growth inhibition (GI%), single dose
Protocol: as §1

OVCAR-8 = conditions: Homo sapiens, OVCAR-8; growth inhibition (GI%), single dose
Protocol: as §1

SF-539 = conditions: Homo sapiens, SF-539; growth inhibition (GI%), single dose
Protocol: as §1

SNB-19 = conditions: Homo sapiens, SNB-19; growth inhibition (GI%), single dose
Protocol: as §1

KM12 = conditions: Homo sapiens, KM12; growth inhibition (GI%), single dose
Protocol: as §1

MALME-3M = conditions: Homo sapiens, Malme-3M; growth inhibition (GI%), single dose
Protocol: as §1

MDA-MB-231/ATCC = conditions: Homo sapiens, MDA-MB-231; growth inhibition (GI%), single dose
Protocol: as §1

MDA-MB-468 = conditions: Homo sapiens, MDA-MB-468; growth inhibition (GI%), single dose
Protocol: as §1

HCT-15 = conditions: Homo sapiens, HCT-15; growth inhibition (GI%), single dose
Protocol: as §1

NCI/ADR-RES = conditions: Homo sapiens, NCI/ADR-RES; growth inhibition (GI%), single dose
Protocol: as §1

Compound | inhibition at 10 µM (HCT-116) [%] | inhibition at 10 µM (ACHN) [%] | inhibition at 10 µM (MDA-MB-435) [%] | inhibition at 10 µM (SK-OV-3) [%] | inhibition at 10 µM (A549/ATCC) [%] | inhibition at 10 µM (SNB-75) [%] | inhibition at 10 µM (SW-620) [%] | inhibition at 10 µM (MOLT-4) [%] | inhibition at 10 µM (EKVX) [%] | inhibition at 10 µM (HT29) [%] | inhibition at 10 µM (HL-60(TB)) [%] | inhibition at 10 µM (OVCAR-8) [%] | inhibition at 10 µM (SF-539) [%] | inhibition at 10 µM (SNB-19) [%] | inhibition at 10 µM (KM12) [%] | inhibition at 10 µM (MALME-3M) [%] | inhibition at 10 µM (MDA-MB-231/ATCC) [%] | inhibition at 10 µM (MDA-MB-468) [%] | inhibition at 10 µM (HCT-15) [%] | inhibition at 10 µM (NCI/ADR-RES) [%]
N#Cc1nnn(-c2ccc(S(N)(=O)=O)cc2)c1N [compound 3, 3] | 7.1 | 1.3 | 3.1 | 4.6 | 4.2 | 15 | 5.1 | 13.3 | 8.7 | 9.4 | 6.5 | 4.6 | 1.9 | 2.9 |  |  |  |  |  | 
N#Cc1nnn(-c2ccc(S(N)(=O)=O)cc2)c1NCC(=O)c1ccccc1 [compound 7, 7] | 5.1 | 0.6 | 8.3 | 8.2 | 6.7 | 20.1 | 2.8 | 10.2 | 9.2 | 4.5 | 11.6 | 2.4 |  | 7.8 | 0.6 | 3.6 | 4.9 | 3.3 | 1.7 | 
N#Cc1nnn(-c2ccc(S(N)(=O)=O)cc2)c1/N=C/c1ccc(Cl)cc1 [compound 9, 9] | 1.2 |  | 3.4 | 9.9 | 16.1 | 2.9 |  | 6.9 | 4.2 | 0.4 | 12.6 | 7.4 |  |  | 0.5 |  |  |  | 4.3 | 5.4
N#Cc1nnn(-c2ccc(S(N)(=O)=O)cc2)c1NS(=O)(=O)c1ccccc1 [compound 11, N-(4-cyano-1-(4-sulfamoylphenyl)-1H-1,2,3-triazol-5-yl)benzenesulfonamide] | 2.1 |  |  | 15.1 | 11.8 | 10.2 | 2.3 | 11.2 | 2 | 5.1 | 10.7 | 2.9 | 3.2 | 2.8 |  | 1.2 |  |  |  | 3.2
N#Cc1c(-c2ccc(Cl)cc2)nc2c(nnn2-c2ccc(S(N)(=O)=O)cc2)c1N [compound 16, 4-(7-amino-5-(4-chlorophenyl)-6-cyano-3H-[1,2,3]triazolo[4,5-b]pyridin-3-yl)benzenesulfonamide] | 4.6 |  | 2.9 | 9.7 | 8.6 | 20 |  | 17.6 | 39.5 | 1.2 | 5.5 | 3.8 |  | 3.4 |  |  | 24.2 |  | 1.6 | 4.2
CN(C)c1ccc(-c2nc3c(nnn3-c3ccc(S(N)(=O)=O)cc3)c(N)c2C#N)cc1 [compound 17, 4-(7-amino-6-cyano-5-(4-(dimethylamino)phenyl)-3H-[1,2,3]triazolo[4,5-b]pyridin-3-yl)benzenesulfonamide] | 3.6 | 9.3 |  | 12.3 | 16.3 | 21.6 | 2.7 | 2.3 | 17.2 | 3.3 | 12.5 | 11.4 | 2.7 | 0.8 | 5.9 | 0.4 | 18 | 3.2 | 1.2 | 
Nc1nc(=S)[nH]c2c1nnn2-c1ccc(S(N)(=O)=O)cc1 [compound 18, 4-(7-amino-5-thioxo-4,5-dihydro-3H-[1,2,3]triazolo[4,5-d]pyrimidin-3-yl)benzenesulfonamide] |  |  |  | 11.6 | 5.1 | 13.9 | 4.3 | 21.3 | 3.7 | 10.8 | 26.1 | 3.7 |  | 1.7 |  |  | 14.8 | 3.5 |  | 
CCn1c(=S)[nH]c2c(nnn2-c2ccc(S(N)(=O)=O)cc2)c1=N [compound 20, 4-(6-ethyl-7-imino-5-thioxo-4,5,6,7-tetrahydro-3H-[1,2,3]triazolo[4,5-d]pyrimidin-3-yl)benzenesulfonamide] |  |  |  | 3.6 | 12.2 | 3.3 |  | 9.1 | 3.1 |  | 8.9 | 4.8 |  | 1.9 |  |  |  |  |  | 2.2

Source: PMC6171417, “Carbonic anhydrase inhibition with a series of novel benzenesulfonamide-triazole conjugates” (Journal of Enzyme Inhibition and Medicinal Chemistry, 2018)
